Assay results reported in PMC8911884, “Discovery of Novel 3,4-Dihydro-2(1H)-Quinolinone Sulfonamide Derivatives as New Tubulin Polymerization Inhibitors with Anti-Cancer Activity” (Molecules, 2022).
Entries after “also recorded” stand apart in the source; their conditions may differ.

What was measured:
L02 = experiment: MTT cytotoxicity assay, normal liver cells L02; type: cell-based; details: mean ± SD
Excerpt: (§1) The MTT method was used to evaluate the anti-tumor activity and cytotoxic activity of all the synthesized compounds in four tumor cell lines (HeLa, HCT-116, A549 and HepG-2) and normal liver cells (L02). At the same time, the 5-fluorouracil(5-Fu) and CA-4 were used as positive references. […] Unfortunately, our target compound has a similar cytotoxicity to tumor cells and normal cells.
(§2) The HeLa, HCT-116, A549 and HepG-2 cells in the logarithmic growth phase were trypsinized, diluted with 10% DMEM medium and evenly seeded in a 96-well plate with 1 × 10^4 cells per well. We placed the inoculated 96-well plate in an incubator at 37 °C and 5% CO2 for 4 h. After the cells adhered to the wall, we removed the medium. We added 150 μL of medicated medium (1% DMEM) to each well of the experimental group, and the control group was added with an equal volume of solvent, with 3 replicate holes for each concentration. Then, we put it in the incubator and continued to incubate for 48 h. After that, we added MTT reagent in the dark, continued incubating for 4 h, discarded the supernatant, added 150 µL DMSO to each well and shook it for 10 min in the dark to fully dissolved the formazan. The absorbance was read at 492 nm by a microplate reader (ELx 800, BioTek, Highland Park, Winooski, VT, USA).
(§3) The inhibition rate (%) = (1-dosing hole OD value/control hole OD value); we drew a logarithmic curve diagram according to the inhibition rate and the dosing concentration to obtain the half inhibitory concentration.

A549 = experiment: MTT antiproliferative assay, A549; type: cell-based, human; details: mean ± SD
Description: The MTT method was used to evaluate the anti-tumor activity and cytotoxic activity of all the synthesized compounds in four tumor cell lines (HeLa, HCT-116, A549 and HepG-2) and normal liver cells (L02).
as §2, §3

HeLa = experiment: MTT antiproliferative assay, HeLa; type: cell-based, human; details: 48 h, mean ± SD
Excerpt: as §1, §2, §3

HCT116 = experiment: MTT antiproliferative assay, HCT116; type: cell-based, human; details: mean ± SD
Excerpt: as §1, §2, §3

HepG-2 = experiment: MTT antiproliferative assay, HepG-2; type: cell-based, human; details: mean ± SD
Excerpt: as §1, §2, §3

[1] = system: HeLa, HCT-116, A549 and HepG-2; experiment: MTT antiproliferative activity across the four tumor cell lines; type: cell-based, human; details: SAR discussion
Excerpt: as §1
As shown in, at the beginning, we first synthesized the ortho and meta substituted compounds, D7, D8, D9, D11 and D15. […] Then, we decided to introduce para-substituted benzaldehyde. […] This stimulated our interest, so we continued to introduce -OCH3 substituted at different positions to explore the effect of -OCH3 substituted at different positions on the anti-tumor activity of the compound. […] In short, we obtained a compound named D13 with good anti-tumor activity, and it was worthy of further study.
as §2, §3

tubulin = target: T1, tubulin (Sus scrofa, UniProt P02550+P02554); experiment: In vitro tubulin polymerization assay (fluorescence kit); type: biochemical; details: area under fluorescence curve, 37 °C, 40 min
T1 construct: purchased Cytoskeleton (Danvers, MA, USA) BK011P
T1 sequence (P02554 whole entry): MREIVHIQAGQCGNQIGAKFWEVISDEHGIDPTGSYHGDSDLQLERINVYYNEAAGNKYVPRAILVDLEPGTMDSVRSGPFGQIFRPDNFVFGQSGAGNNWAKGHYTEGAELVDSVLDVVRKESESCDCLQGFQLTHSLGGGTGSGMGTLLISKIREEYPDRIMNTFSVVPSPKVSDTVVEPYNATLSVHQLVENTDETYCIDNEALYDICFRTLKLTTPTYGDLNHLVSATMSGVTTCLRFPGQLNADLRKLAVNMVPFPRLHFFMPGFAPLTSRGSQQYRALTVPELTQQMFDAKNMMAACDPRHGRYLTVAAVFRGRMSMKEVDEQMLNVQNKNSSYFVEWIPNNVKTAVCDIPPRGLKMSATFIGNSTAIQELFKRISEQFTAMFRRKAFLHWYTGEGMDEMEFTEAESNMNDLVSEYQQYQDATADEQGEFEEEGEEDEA
T1 sequence (P02550 whole entry): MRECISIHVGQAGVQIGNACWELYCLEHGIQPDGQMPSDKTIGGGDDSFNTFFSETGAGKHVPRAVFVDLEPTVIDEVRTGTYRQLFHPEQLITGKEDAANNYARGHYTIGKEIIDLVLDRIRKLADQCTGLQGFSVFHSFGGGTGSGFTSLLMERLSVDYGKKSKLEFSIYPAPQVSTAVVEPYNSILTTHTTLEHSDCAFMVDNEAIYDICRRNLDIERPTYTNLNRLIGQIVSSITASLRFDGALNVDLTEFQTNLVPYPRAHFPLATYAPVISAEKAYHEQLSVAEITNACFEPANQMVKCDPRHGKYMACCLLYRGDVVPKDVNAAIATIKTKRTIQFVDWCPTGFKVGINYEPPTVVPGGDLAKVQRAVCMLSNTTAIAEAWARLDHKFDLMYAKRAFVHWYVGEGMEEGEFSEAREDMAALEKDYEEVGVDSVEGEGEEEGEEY

Compound	IC50 (L02; Homo sapiens, L02, 48 h) [µM]	IC50 (A549; Homo sapiens, A549, 48 h) [µM]	IC50 (HeLa; Homo sapiens, HeLa) [µM]	IC50 (HCT116; Homo sapiens, HCT-116, 48 h) [µM]	IC50 (HepG-2; Homo sapiens, HepG2, 48 h) [µM]	melting point [°C]	antiproliferative activity (in words) [1]	IC50 (HeLa) [µM]	IC50 (tubulin) [µM]	IC50 (L02; 48 h) [µM]	IC50 (A549; 48 h) [µM]	IC50 (HCT116; 48 h) [µM]	IC50 (HepG-2; 48 h) [µM]
COc1ccc(/C=C\c2cc(OC)c(OC)c(OC)c2)cc1O [CA-4, Combretastatin A-4, reference compound]	0.15 ± 0.05	0.12 ± 0.023	0.02 ± 0.001	0.04 ± 0.016	0.05 ± 0.021	–	–	–	–	–	–	–	–
O=c1[nH]cc(F)c(=O)[nH]1 [Compound 5-Fu, 5-fluorouracil, reference compound]	20 ± 1.25	–	29.6 ± 3.21	11.7 ± 2.37	18.3 ± 0.76	–	–	–	–	–	–	–	–
COc1cc(N(Cc2ccc(F)cc2)S(=O)(=O)c2ccc3c(c2)CCC(=O)N3)cc(OC)c1OC [Compound D3, N-(4-fluorobenzyl)-2-oxo-N-(3,4,5-trimethoxyphenyl)-1,2,3,4-tetrahydroquinoline-6-sulfonamide]	5.31 ± 1.08	18.2 ± 4.11	7.54 ± 1.48	3.87 ± 0.12	6.31 ± 1.21	108 to 110	strong anti-proliferative activity	–	–	–	–	–	–
COc1cc(N(Cc2ccc(Cl)cc2)S(=O)(=O)c2ccc3c(c2)CCC(=O)N3)cc(OC)c1OC [Compound D4, N-(4-chlorobenzyl)-2-oxo-N-(3,4,5-trimethoxyphenyl)-1,2,3,4-tetrahydroquinoline-6-sulfonamide]	6.35 ± 2.03	8.49 ± 1.77	9.67 ± 2.1	4.21 ± 0.5	4.12 ± 0.55	119 to 121	strong anti-proliferative activity	–	–	–	–	–	–
COc1cc(N(Cc2ccc(C)cc2)S(=O)(=O)c2ccc3c(c2)CCC(=O)N3)cc(OC)c1OC [Compound D5, N-(4-methylbenzyl)-2-oxo-N-(3,4,5-trimethoxyphenyl)-1,2,3,4-tetrahydroquinoline-6-sulfonamide]	3.05 ± 0.19	2.96 ± 0.13	1.34 ± 0.3	1.13 ± 0.01	2.36 ± 0.11	128 to 130	strong anti-proliferative activity	–	–	–	–	–	–
COc1cc(N(Cc2ccc(N(C)C)cc2)S(=O)(=O)c2ccc3c(c2)CCC(=O)N3)cc(OC)c1OC [Compound D6, N-(4-(dimethylamino)benzyl)-2-oxo-N-(3,4,5-trimethoxyphenyl)-1,2,3,4-tetrahydroquinoline-6-sulfonamide]	5.31 ± 1.02	2.42 ± 0.46	3.63 ± 0.98	2.05 ± 0.11	4.74 ± 1.56	127 to 129	strong anti-proliferative activity	–	–	–	–	–	–
COc1cc(N(Cc2cccc(C)c2)S(=O)(=O)c2ccc3c(c2)CCC(=O)N3)cc(OC)c1OC [Compound D7, N-(3-methylbenzyl)-2-oxo-N-(3,4,5-trimethoxyphenyl)-1,2,3,4-tetrahydroquinoline-6-sulfonamide]	30.2 ± 2.56	35 ± 6.74	36.5 ± 3.59	28.2 ± 4.26	44.3 ± 4.31	120 to 122	poor antiproliferative activity	–	–	–	–	–	–
COc1cc(N(Cc2ccccc2F)S(=O)(=O)c2ccc3c(c2)CCC(=O)N3)cc(OC)c1OC [Compound D8, N-(2-fluorobenzyl)-2-oxo-N-(3,4,5-trimethoxyphenyl)-1,2,3,4-tetrahydroquinoline-6-sulfonamide]	60.2 ± 4.21	> 100	21.6 ± 3.56	17.5 ± 1.33	50.9 ± 6.77	138 to 140	poor antiproliferative activity	–	–	–	–	–	–
COc1cc(N(Cc2ccccc2Cl)S(=O)(=O)c2ccc3c(c2)CCC(=O)N3)cc(OC)c1OC [Compound D9, N-(2-chlorobenzyl)-2-oxo-N-(3,4,5-trimethoxyphenyl)-1,2,3,4-tetrahydroquinoline-6-sulfonamide]	36.2 ± 4.21	31.7 ± 4.55	16.9 ± 4.11	12.2 ± 2.89	27.5 ± 3.28	117 to 119	poor antiproliferative activity	–	–	–	–	–	–
COc1cc(N(Cc2ccc(Cl)c(Cl)c2)S(=O)(=O)c2ccc3c(c2)CCC(=O)N3)cc(OC)c1OC [Compound D10, N-(3,4-dichlorobenzyl)-2-oxo-N-(3,4,5-trimethoxyphenyl)-1,2,3,4-tetrahydroquinoline-6-sulfonamide]	48.3 ± 6.64	> 100	75.3 ± 10.3	51.2 ± 13.5	–	123 to 125	–	–	–	–	–	–	–
COc1cccc(CN(c2cc(OC)c(OC)c(OC)c2)S(=O)(=O)c2ccc3c(c2)CCC(=O)N3)c1 [Compound D12, N-(3-methoxybenzyl)-2-oxo-N-(3,4,5-trimethoxyphenyl)-1,2,3,4-tetrahydroquinoline-6-sulfonamide]	56.3 ± 2.15	–	54.6 ± 8.15	48.2 ± 7.46	64.1 ± 7.56	121 to 123	poor antiproliferative activity	–	–	–	–	–	–
COc1ccc(CN(c2cc(OC)c(OC)c(OC)c2)S(=O)(=O)c2ccc3c(c2)CCC(=O)N3)cc1 [Compound D13, N-(4-methoxybenzyl)-2-oxo-N-(3,4,5-trimethoxyphenyl)-1,2,3,4-tetrahydroquinoline-6-sulfonamide]	3.61 ± 1.02	1.57 ± 0.25	1.34	0.94 ± 0.31	1.82 ± 0.97	122 to 124	strongest anti-proliferative activity; also recorded: strong anti-proliferative activity	1.46 ± 0.11	6.74	–	–	–	–
COc1ccc(CN(c2cc(OC)c(OC)c(OC)c2)S(=O)(=O)c2ccc3c(c2)CCC(=O)N3)cc1OC [Compound D14, N-(3,4-dimethoxybenzyl)-2-oxo-N-(3,4,5-trimethoxyphenyl)-1,2,3,4-tetrahydroquinoline-6-sulfonamide]	66.5 ± 7.81	49.3 ± 12.5	> 100	87.8 ± 15.2	–	116 to 118	poor antiproliferative activity	–	–	–	–	–	–
COc1ccc(OC)c(CN(c2cc(OC)c(OC)c(OC)c2)S(=O)(=O)c2ccc3c(c2)CCC(=O)N3)c1 [Compound D15]	> 100	–	86.4 ± 14.2	> 100	75.4 ± 15.4	127 to 129	poor antiproliferative activity	–	–	–	–	–	–
COc1cc(CN(c2cc(OC)c(OC)c(OC)c2)S(=O)(=O)c2ccc3c(c2)CCC(=O)N3)cc(OC)c1OC [Compound D16, 2-oxo-N-(3,4,5-trimethoxybenzyl)-N-(3,4,5-trimethoxyphenyl)-1,2,3,4-tetrahydroquinoline-6-sulfonamide]	4.25 ± 0.87	7.34 ± 1.44	4.91 ± 0.76	2.08 ± 0.24	5.48 ± 1.23	131 to 133	–	–	–	–	–	–	–
N-benzyl-2-oxo-N-(3,4,5-trimethoxyphenyl)-1,2,3,4-tetrahydroquinoline-7-sulfonamide [Compound D1]	–	–	–	–	–	–	strong anti-proliferative activity	13.5 ± 2.15	–	20.7 ± 3.12	14.2 ± 1.26	25.9 ± 0.98	9.87 ± 2.49
